# Assay results published in patent publication US20240208957A1, “TRIAZINE DERIVATIVE AS REVERSIBLE AND IRREVERSIBLE COVALENT INHIBITORS OF PI3K” (UNIVERSITÄT BASEL, priority 2021, published 2024).
# Like-named read-outs stand apart in the source and are kept apart here.
# How the values were obtained:
# [1] = system: pSer473 of PKB/Akt in SKOV3 cells; assay: In-Cell Western cellular PI3K signaling, pSer473 of PKB/Akt in SKOV3 cells; assay type: cell-based; details: Homo sapiens
# Experimental: Protein phosphorylation was detected as follows: pSer473 of PKB/Akt with rabbit polyclonal antibody from Cell Signaling Technology (CST) (#4058) by In-Cell Western assays, where 1.2×10^4 SKOV3 cells/well in 96-well plates were plated (Cell Carrier, PerkinElmer) for 24 hours (37° C., 5% CO2), as described in Ref.^21.
# [2] = target: p110α (PI3Kα) (Homo sapiens, UniProt P42336); assay: LanthaScreen determination of kinetic constants (kinact, Ki) for p110α; assay type: binding; details: for Ki: dissociation constant of the first reversible binding, mean of 3; for kinact: read-out: kinact PI3Kα;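 on all read-outs here: covalent inhibition constants for p110α come from LanthaScreen data, fitted globally by numerical integration in KinTek Global Kinetic Explorer software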
# [3] = Intrinsic reactivity of the inhibitors with βME measured with HPLC; assay type: physicochemical; details: 1 mM inhibitor + 600 mM βME, n = 3, mean
# Description: E˜I→EI • ii) off-target reactions with ubiquitous sulfhydryls (S) and other nucleophils present in physiologic environments such as cells and body fluids are driven by the intrinsic reactivity of the warhead that is defined by Kchem driving the conversion of S and I to form the sulfhydryl-adduct (SI) [table]
# [4] = background statement; cited from earlier work
# [5] = background statement; cited from earlier work; remark: listed apart in the source
# [6] = SK-OV-3, SKOV3 cells, mean of 2 or 3 independent measurements, read-out: IC50 pPKB (S473) SKOV3
# [7] = mean of 3 independent measurements, global fitting with KinTek
# p110α (PI3Kα), sequence (P42336 whole entry): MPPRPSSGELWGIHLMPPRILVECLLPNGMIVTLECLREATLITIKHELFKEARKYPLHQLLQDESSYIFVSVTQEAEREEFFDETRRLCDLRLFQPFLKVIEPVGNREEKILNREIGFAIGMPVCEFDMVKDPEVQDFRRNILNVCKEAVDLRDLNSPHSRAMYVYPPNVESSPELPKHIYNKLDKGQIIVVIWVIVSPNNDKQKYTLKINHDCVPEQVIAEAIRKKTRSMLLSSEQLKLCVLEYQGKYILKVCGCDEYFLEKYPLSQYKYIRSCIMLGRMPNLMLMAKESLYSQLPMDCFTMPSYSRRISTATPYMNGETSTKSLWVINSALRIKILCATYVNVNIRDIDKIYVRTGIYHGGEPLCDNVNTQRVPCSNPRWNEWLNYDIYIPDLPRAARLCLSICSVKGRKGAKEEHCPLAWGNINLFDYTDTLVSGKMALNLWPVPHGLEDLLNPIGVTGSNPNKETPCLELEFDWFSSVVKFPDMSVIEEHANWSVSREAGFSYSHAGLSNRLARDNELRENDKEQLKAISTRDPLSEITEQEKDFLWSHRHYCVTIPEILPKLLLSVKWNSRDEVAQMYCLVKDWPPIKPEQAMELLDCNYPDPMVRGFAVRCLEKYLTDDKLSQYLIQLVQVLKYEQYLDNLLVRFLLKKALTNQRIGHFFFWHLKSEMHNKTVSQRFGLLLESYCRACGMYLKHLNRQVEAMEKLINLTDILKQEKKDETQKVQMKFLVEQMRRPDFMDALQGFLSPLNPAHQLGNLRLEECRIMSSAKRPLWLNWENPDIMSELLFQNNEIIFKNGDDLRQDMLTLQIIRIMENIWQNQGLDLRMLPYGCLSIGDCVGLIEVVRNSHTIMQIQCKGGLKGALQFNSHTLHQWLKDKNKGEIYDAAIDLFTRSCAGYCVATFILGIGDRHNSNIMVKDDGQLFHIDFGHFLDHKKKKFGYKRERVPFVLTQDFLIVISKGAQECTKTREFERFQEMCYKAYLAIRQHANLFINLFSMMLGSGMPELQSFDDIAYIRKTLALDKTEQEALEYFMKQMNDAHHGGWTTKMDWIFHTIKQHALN
# p110α (PI3Kα), sequence (P27986 whole entry partner): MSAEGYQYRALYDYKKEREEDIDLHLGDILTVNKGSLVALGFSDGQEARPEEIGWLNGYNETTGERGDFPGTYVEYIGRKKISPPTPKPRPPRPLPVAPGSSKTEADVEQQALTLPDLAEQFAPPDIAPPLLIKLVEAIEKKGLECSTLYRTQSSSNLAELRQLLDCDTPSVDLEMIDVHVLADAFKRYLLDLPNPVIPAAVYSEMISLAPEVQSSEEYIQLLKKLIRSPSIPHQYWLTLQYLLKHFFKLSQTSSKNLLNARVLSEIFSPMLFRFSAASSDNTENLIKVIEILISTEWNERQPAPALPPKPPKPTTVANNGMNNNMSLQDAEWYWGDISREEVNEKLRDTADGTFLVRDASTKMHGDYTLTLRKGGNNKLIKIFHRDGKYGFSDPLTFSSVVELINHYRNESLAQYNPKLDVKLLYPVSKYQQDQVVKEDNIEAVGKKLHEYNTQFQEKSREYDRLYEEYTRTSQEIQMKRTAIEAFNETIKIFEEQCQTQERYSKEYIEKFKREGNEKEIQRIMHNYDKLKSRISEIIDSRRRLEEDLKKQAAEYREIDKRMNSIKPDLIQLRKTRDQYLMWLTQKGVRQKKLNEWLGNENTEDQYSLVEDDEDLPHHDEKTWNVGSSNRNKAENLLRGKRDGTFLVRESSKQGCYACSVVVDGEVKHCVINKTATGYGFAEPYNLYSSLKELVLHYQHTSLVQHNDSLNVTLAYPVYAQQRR
Ki [2] [nM],"IC50 [1, 6] [nM]","kinact/KI ([2]; PI3Kα, read-out: kinact/Ki) [M⁻¹ s⁻¹]","kinact [2, 7] [s⁻¹]",Structure (SMILES),"IC50 ([1]; SK-OV-3, read-out: IC50 pPKB (S473) SKOV3) [nM]",kinact/KI [2] [M⁻¹ s⁻¹],kinact [2] [s⁻¹],kchem [3] [M⁻¹ s⁻¹],metabolic stability [4],aqueous solubility [5]
6.74,204,40700,0.000275,"C=CC(=O)N1CCC[C@@H]1C(=O)NCC(=O)N1CCN(c2nc(-c3cnc(N)nc3C(F)F)nc(N3CCOCC3)n2)CC1 [Compound 29, (R)-1-acryloyl-N-(2-(4-(4-(2-amino-4-(difluoromethyl)pyrimidin-5-yl)-6-morpholino-1,3,5-triazin-2-yl)piperazin-1-yl)-2-oxoethyl)pyrrolidine-2-carboxamide]",–,–,–,0.0079,–,–
–,164,–,–,"CC(C)=CC(=O)CCC(=O)N1CCN(Cc2cc3nc(-c4cccc5[nH]ncc45)nc(N4CCOCC4)c3s2)CC1 [CNX-1351, 1-[4-[[2-(1H-indazol-4-yl)-4-(4-morpholinyl)thieno[3,2-d]pyrimidin-6-yl]methyl]-1-piperazinyl]-6-methyl-5-heptene-1,4-dione, reference compound]",–,–,–,0.000222,metabolic instability,low
3.06,59.3,212000,0.00065,"C=CC(=O)N1CCCC[C@H]1C(=O)NCC(=O)N1CCN(c2nc(-c3cnc(N)nc3C(F)F)nc(N3CCOCC3)n2)CC1 [Compound 20, (S)-1-acryloyl-N-(2-(4-(4-(2-amino-4-(difluoromethyl)pyrimidin-5-yl)-6-morpholino-1,3,5-triazin-2-yl)piperazin-1-yl)-2-oxoethyl)piperidine-2-carboxamide]",–,–,–,0.00444,–,–
8.34,94,311000,0.0026,"C=CC(=O)N1CC[C@H](C(=O)NCC(=O)N2CCN(c3nc(-c4cnc(N)nc4C(F)F)nc(N4CCOCC4)n3)CC2)C1 [Compound 24, (S)-1-acryloyl-N-(2-(4-(4-(2-amino-4-(difluoromethyl)pyrimidin-5-yl)-6-morpholino-1,3,5-triazin-2-yl)piperazin-1-yl)-2-oxoethyl)pyrrolidine-3-carboxamide]",–,–,–,0.00059,–,–
4.29,23,239000,0.00102,"C=CC(=O)N1CCC(COCC(=O)N2CCN(c3nc(-c4cnc(N)nc4C(F)F)nc(N4CCOCC4)n3)CC2)CC1 [Compound 46, 1-(4-((2-(4-(4-(2-amino-4-(difluoromethyl)pyrimidin-5-yl)-6-morpholino-1,3,5-triazin-2-yl)piperazin-1-yl)-2-oxoethoxy)methyl)piperidin-1-yl)prop-2-en-1-one]",–,–,–,0.00029,–,–
13.4,609,126000,0.00169,"C=CC(=O)N1CC(C(=O)NCCC(=O)N2CCN(c3nc(-c4cnc(N)nc4C(F)F)nc(N4CCOCC4)n3)CC2)C1 [Compound 35, 1-acryloyl-N-(3-(4-(4-(2-amino-4-(difluoromethyl)pyrimidin-5-yl)-6-morpholino-1,3,5-triazin-2-yl)piperazin-1-yl)-3-oxopropyl)azetidine-3-carboxamide]",–,–,–,0.00662,–,–
3.85,89.8,227000,0.000875,"C=CC(=O)N1CCCC[C@@H]1C(=O)NCC(=O)N1CCN(c2nc(-c3cnc(N)nc3C(F)F)nc(N3CCOCC3)n2)CC1 [Compound 21, (R)-1-acryloyl-N-(2-(4-(4-(2-amino-4-(difluoromethyl)pyrimidin-5-yl)-6-morpholino-1,3,5-triazin-2-yl)piperazin-1-yl)-2-oxoethyl)piperidine-2-carboxamide]",–,–,–,0.00469,–,–
6.07,64.1,531000,0.0032,"C=CC(=O)N1CC[C@@H](C(=O)N(C)CC(=O)N2CCN(c3nc(-c4cnc(N)nc4C(F)F)nc(N4CCOCC4)n3)CC2)C1 [Compound 27, (R)-1-acryloyl-N-(2-(4-(4-(2-amino-4-(difluoromethyl)pyrimidin-5-yl)-6-morpholino-1,3,5-triazin-2-yl)piperazin-1-yl)-2-oxoethyl)-N-methylpyrrolidine-3-carboxamide]",–,–,–,0.00049,–,–
7.66,85.7,32700,0.000251,"C=CC(=O)N1CCC[C@H](C(=O)N(C)CC(=O)N2CCN(c3nc(-c4cnc(N)nc4C(F)F)nc(N4CCOCC4)n3)CC2)C1 [Compound 17, (S)-1-acryloyl-N-(2-(4-(4-(2-amino-4-(difluoromethyl)pyrimidin-5-yl)-6-morpholino-1,3,5-triazin-2-yl)piperazin-1-yl)-2-oxoethyl)-N-methylpiperidine-3-carboxamide]",–,–,–,0.00068,–,–

Structure (SMILES),Ki [2] [nM],"IC50 [1, 6] [nM]","kinact/KI ([2]; PI3Kα, read-out: kinact/Ki) [M⁻¹ s⁻¹]","kinact [2, 7] [s⁻¹]","IC50 ([1]; SK-OV-3, read-out: IC50 pPKB (S473) SKOV3) [nM]",kinact/KI [2] [M⁻¹ s⁻¹],kinact [2] [s⁻¹],kchem [3] [M⁻¹ s⁻¹],metabolic stability [4],aqueous solubility [5]
"C=CC(=O)N1CCC[C@@H](C(=O)N(C)CC(=O)N2CCN(c3nc(-c4cnc(N)nc4C(F)F)nc(N4CCOCC4)n3)CC2)C1 [Compound 18, (R)-1-acryloyl-N-(2-(4-(4-(2-amino-4-(difluoromethyl)pyrimidin-5-yl)-6-morpholino-1,3,5-triazin-2-yl)piperazin-1-yl)-2-oxoethyl)-N-methylpiperidine-3-carboxamide]",6.08,–,–,–,15.3,711000,0.00433,0.000704,–,–
